Measurements taken from patent publication US8846947B2, “Benzimidazoles and related analogs as sirtuin modulators” (GlaxoSmithKline LLC, priority 2008, dated 2014).
Like-named read-outs stand apart in the source and are kept apart here. Each block holds one compound with its values, some of them ahead of it.

Molecular target: T1, SIRT1 (Homo sapiens, UniProt Q96EB6)
T1 sequence (Q96EB6 1-747): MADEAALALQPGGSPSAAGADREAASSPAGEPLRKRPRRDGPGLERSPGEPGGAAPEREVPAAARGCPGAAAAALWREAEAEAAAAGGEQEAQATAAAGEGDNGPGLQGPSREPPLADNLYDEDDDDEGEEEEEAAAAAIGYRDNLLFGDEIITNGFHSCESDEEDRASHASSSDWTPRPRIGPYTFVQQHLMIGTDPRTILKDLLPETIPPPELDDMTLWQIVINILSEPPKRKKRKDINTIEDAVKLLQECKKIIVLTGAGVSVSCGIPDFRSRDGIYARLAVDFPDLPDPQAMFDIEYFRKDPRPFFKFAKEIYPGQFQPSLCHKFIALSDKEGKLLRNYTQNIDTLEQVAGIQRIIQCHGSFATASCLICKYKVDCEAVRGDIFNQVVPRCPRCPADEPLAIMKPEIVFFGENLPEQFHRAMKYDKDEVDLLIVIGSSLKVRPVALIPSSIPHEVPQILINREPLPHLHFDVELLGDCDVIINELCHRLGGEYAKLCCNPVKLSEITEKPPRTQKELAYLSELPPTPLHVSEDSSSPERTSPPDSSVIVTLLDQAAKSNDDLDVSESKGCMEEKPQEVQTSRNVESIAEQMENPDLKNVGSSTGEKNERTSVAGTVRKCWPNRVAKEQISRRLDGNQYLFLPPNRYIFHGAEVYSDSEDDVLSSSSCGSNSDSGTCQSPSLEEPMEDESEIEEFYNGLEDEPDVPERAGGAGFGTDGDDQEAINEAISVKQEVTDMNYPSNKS
Test: Mass spectrometry based SIRT1 deacetylase activation assay (acetylated p53-derived peptide substrate)
Assay type: biochemical

[1] = 0.5 μM peptide substrate, 120 μM βNAD+, 10 nM SIRT1, 25 minutes at 25° C.
[2] = 0.5 μM peptide substrate, 120 μM βNAD+, 10 nM SIRT1, 25 min at 25° C.
[3] = 0.5 μM peptide substrate, 120 μM βNAD+, 10 nM SIRT1, 25 min at 25° C., read-out: EC1.5

Compound: Cc1cnc(NC(=O)c2cccc3[nH]c(-c4cc(F)ccc4C(F)F)nc23)s1 [Compound 512]
Fold Act. (percent maximum fold activation) [2]: A (Fold activation >200%)
EC1.5 [3]: < 1000 nM

Compound: O=C(Nc1ccc(OCC(O)CO)cc1)c1cccc2[nH]c(-c3ccc(Cl)cc3C(F)(F)F)nc12 (stereo not drawn) [Compound 493]
Fold Act. (percent maximum fold activation) [2]: A (Fold activation >200%)
EC1.5 [3]: < 1000 nM

Compound: O=C(Nc1nccs1)c1cccc2[nH]c(-c3ccccc3C(F)F)nc12 [Compound 514]
Fold Act. (percent maximum fold activation) [2]: A (Fold activation >200%)
EC1.5 [3]: < 1000 nM

Compound: Cc1cc(C)nc(NC(=O)c2cccc3[nH]c(-c4cnc5c(c4)OCCN5C)nc23)c1 [Compound 461]
Fold Act. (percent maximum fold activation) [2]: A (Fold activation >200%)
EC1.5 [3]: < 1000 nM

Compound: O=C(Nc1cccnn1)c1cccc2[nH]c(-c3ccnn3-c3ccccc3)nc12 [Compound 467]
Fold Act. (percent maximum fold activation) [2]: A (Fold activation >200%)
EC1.5 [3]: 1000 to 25000 nM

Compound: O=C(Nc1nccs1)c1cccc2[nH]c(-c3ccc(N4CCOCC4)nc3)nc12 [Compound 247, 2-(6-morpholinopyridin-3-yl)-N-(thiazol-2-yl)-1H-benzo[d]imidazole-4-carboxamide]
EC1.5: A (EC1.5<1.0 uM)
Fold Act. (percent maximum fold activation): A (Fold activation >200%)

Compound: O=C(Nc1nccs1)c1cccc2[nH]c(-c3ccccn3)nc12 [Compound 215]
EC1.5: B (EC1.5 1-25 uM)
Fold Act. (percent maximum fold activation): A (Fold activation >200%)

Compound: O=C(NCc1ccncc1)c1cccc2[nH]c(-c3cccc(C(F)(F)F)c3)nc12 [Compound 271]
EC1.5: C (EC1.5 >25 uM)
Fold Act. (percent maximum fold activation): B (Fold Activation <200%)

Compound: CC(C)N1CCN(c2cccc(-c3nc4c(C(=O)Nc5ccccn5)cccc4[nH]3)c2)CC1 [Compound 530]
Fold Act. (percent maximum fold activation) [2]: A (Fold activation >200%)
EC1.5 [3]: < 1000 nM

Compound: O=C(Nc1ccccn1)c1cccc2[nH]c(-c3ccccc3OCCN3CCCC(F)(F)C3)nc12 [Compound 612]
EC1.5 [1]: C (EC1.5 >25 uM)
Fold Act. (percent maximum fold activation) [1]: B (Fold Activation <200%)

Compound: O=C(Nc1ccc(CN2CCCC2)cc1)c1cccc2[nH]c(-c3ccc(Cl)cc3C(F)(F)F)nc12 [Compound 491]
Fold Act. (percent maximum fold activation) [2]: A (Fold activation >200%)
EC1.5 [3]: < 1000 nM

Compound: O=C(Nc1nccs1)c1cccc2[nH]c(-c3ccccc3OCCN3CCCC(F)(F)C3)nc12 [Compound 611]
EC1.5 [1]: C (EC1.5 >25 uM)
Fold Act. (percent maximum fold activation) [1]: B (Fold Activation <200%)

Compound: O=C(Nc1cccnc1)c1cccc2[nH]c(-c3cccc(N4CCCCC4)n3)nc12 [Compound 390]
EC1.5: B (EC1.5 1-25 uM)
Fold Act. (percent maximum fold activation): B (Fold Activation <200%)

Compound: O=C(Nc1nccs1)c1cccc2[nH]c(-c3ccccc3OC(F)(F)F)nc12 [Compound 305]
EC1.5: A (EC1.5<1.0 uM)
Fold Act. (percent maximum fold activation): A (Fold activation >200%)

Compound: CCCN1CCCc2ccc(-c3nc4c(C(=O)Nc5cccnc5)cccc4[nH]3)cc21 [Compound 497]
Fold Act. (percent maximum fold activation) [2]: A (Fold activation >200%)
EC1.5 [3]: 1000 to 25000 nM

Compound: Cn1nc(C(F)(F)F)c(-c2nc3c(C(=O)Nc4cccnc4)cccc3[nH]2)c1Cl [Compound 328]
EC1.5: A (EC1.5<1.0 uM)
Fold Act. (percent maximum fold activation): A (Fold activation >200%)

Compound: CC(C)(C)c1nnc(NC(=O)c2cccc3[nH]c(-c4cccc(C(F)(F)F)c4)nc23)s1 [Compound 240]
EC1.5: C (EC1.5 >25 uM)
Fold Act. (percent maximum fold activation): B (Fold Activation <200%)

Compound: O=C(Nc1cnccn1)c1cccc2[nH]c(-c3ccccc3OCCN3CCOCC3)nc12 [Compound 489]
Fold Act. (percent maximum fold activation) [2]: B (Fold Activation <200%)
EC1.5 [3]: 1000 to 25000 nM

Compound: O=C(Nc1ccccn1)c1cccc2[nH]c(-c3cc(Cl)ccc3C(F)(F)F)nc12 [Compound 429]
Fold Act. (percent maximum fold activation) [2]: B (Fold Activation <200%)
EC1.5 [3]: > 25000 nM

Compound: O=C(Nc1ncccn1)c1cccc2[nH]c(-c3cccc(C(F)(F)F)c3)nc12 [Compound 241]
EC1.5: C (EC1.5 >25 uM)
Fold Act. (percent maximum fold activation): B (Fold Activation <200%)

Compound: O=C(Nc1ccccn1)c1cccc2[nH]c(-c3ccc(OC4CCNCC4)cc3)nc12 [Compound 535]
Fold Act. (percent maximum fold activation) [2]: A (Fold activation >200%)
EC1.5 [3]: < 1000 nM

Compound: O=C(Nc1nncs1)c1cccc2[nH]c(-c3cccc(C(F)(F)F)c3)nc12 [Compound 239]
EC1.5: C (EC1.5 >25 uM)
Fold Act. (percent maximum fold activation): B (Fold Activation <200%)

Compound: O=C(NC1CCCC1)c1cccc2[nH]c(-c3cccc(C(F)(F)F)c3)nc12 [Compound 276]
EC1.5: C (EC1.5 >25 uM)
Fold Act. (percent maximum fold activation): B (Fold Activation <200%)

Compound: CN1CCOc2cc(-c3nc4c(C(=O)Nc5ccccn5)cccc4[nH]3)cnc21 [Compound 439]
Fold Act. (percent maximum fold activation) [2]: B (Fold Activation <200%)
EC1.5 [3]: > 25000 nM

Compound: O=C(Nc1nccs1)c1cccc2[nH]c(-c3ccc(N4CCOCC4)cc3)nc12 [Compound 268]
EC1.5: A (EC1.5<1.0 uM)
Fold Act. (percent maximum fold activation): A (Fold activation >200%)

Now from value to compound:

EC1.5 [1]: A (EC1.5<1.0 uM)
Fold Act. (percent maximum fold activation) [1]: A (Fold activation >200%)
Compound: O=C(Nc1ccc(CN2CCOCC2)nc1)c1cccc2[nH]c(-c3ccc(Cl)cc3C(F)(F)F)nc12 [Compound 684]

EC1.5 [1]: A (EC1.5<1.0 uM)
Fold Act. (percent maximum fold activation) [1]: A (Fold activation >200%)
Compound: O=C(Nc1cccnc1)c1cc(N2CCOCC2)cc2[nH]c(-c3cc(F)ccc3C(F)(F)F)nc12 [Compound 646]

EC1.5 [1]: C (EC1.5 >25 uM)
Fold Act. (percent maximum fold activation) [1]: B (Fold Activation <200%)
Compound: O=C(Nc1nccs1)c1cccc2[nH]c(-c3ccccc3OCCN3CCC(F)(F)C3)nc12 [Compound 614]

EC1.5 [1]: A (EC1.5<1.0 uM)
Fold Act. (percent maximum fold activation) [1]: A (Fold activation >200%)
Compound: O=C(Nc1nccs1)c1cccc2[nH]c(-c3ccc(OCCN4CCOCC4)cc3C(F)F)nc12 [Compound 722]

EC1.5 [1]: A (EC1.5<1.0 uM)
Fold Act. (percent maximum fold activation) [1]: A (Fold activation >200%)
Compound: Cc1cnc(NC(=O)c2cncc3[nH]c(-c4ccc(OC[C@H](O)CO)cc4C(F)(F)F)nc23)s1 [Compound 762]

EC1.5 [1]: A (EC1.5<1.0 uM)
Fold Act. (percent maximum fold activation) [1]: A (Fold activation >200%)
Compound: O=C(Nc1cccnc1)c1cc(N2CCOCC2)cc2[nH]c(-c3ccc(F)cc3C(F)F)nc12 [Compound 751]

EC1.5 [1]: A (EC1.5<1.0 uM)
Fold Act. (percent maximum fold activation) [1]: A (Fold activation >200%)
Compound: O=C(Nc1ccccn1)c1cccc2[nH]c(-c3ccc(OC[C@H](O)CO)cc3C(F)(F)F)nc12 [Compound 744]

EC1.5 [1]: A (EC1.5<1.0 uM)
Fold Act. (percent maximum fold activation) [1]: A (Fold activation >200%)
Compound: O=C(Nc1cccc(OC[C@H](O)CO)c1)c1cccc2[nH]c(-c3ccc(F)cc3C(F)F)nc12 [Compound 717]

EC1.5 [1]: A (EC1.5<1.0 uM)
Fold Act. (percent maximum fold activation) [1]: A (Fold activation >200%)
Compound: Cc1cnc(NC(=O)c2cccc3[nH]c(-c4ccc(N5CC[C@H](F)C5)cc4C(F)F)nc23)s1 [Compound 732]

EC1.5 [1]: A (EC1.5<1.0 uM)
Fold Act. (percent maximum fold activation) [1]: A (Fold activation >200%)
Compound: Cc1ccc(NC(=O)c2cccc3[nH]c(-c4ccc(CN5CCCC5)cc4C(F)(F)F)nc23)cc1 [Compound 870, 2-(4-(pyrrolidin-1-ylmethyl)-2-(trifluoromethyl)phenyl)-N-p-tolyl-1H-benzo[d]imidazole-4-carboxamide]

EC1.5 [1]: A (EC1.5<1.0 uM)
Fold Act. (percent maximum fold activation) [1]: A (Fold activation >200%)
Compound: O=C(Nc1cccnc1)c1cncc2[nH]c(-c3ccc(F)cc3C(F)(F)F)nc12 [Compound 695]

EC1.5 [1]: A (EC1.5<1.0 uM)
Fold Act. (percent maximum fold activation) [1]: A (Fold activation >200%)
Compound: O=C(Nc1cccnn1)c1cc(N2CCOCC2)cc2[nH]c(-c3cc(F)ccc3C(F)(F)F)nc12 [Compound 647]

EC1.5 [1]: A (EC1.5<1.0 uM)
Fold Act. (percent maximum fold activation) [1]: A (Fold activation >200%)
Compound: O=C(Nc1nc(CN2CCOCC2)cs1)c1cccc2[nH]c(-c3ccc(Cl)cc3C(F)F)nc12 [Compound 849]

EC1.5 [1]: B (EC1.5 1-25 uM)
Fold Act. (percent maximum fold activation) [1]: B (Fold Activation <200%)
Compound: O=C(Nc1nc(CN2CCOCC2)cs1)c1cccc2[nH]c(-c3cccc(Cl)c3)nc12 [Compound 796]

EC1.5 [1]: A (EC1.5<1.0 uM)
Fold Act. (percent maximum fold activation) [1]: A (Fold activation >200%)
Compound: O=C(Nc1ccccn1)c1cc(F)cc2nc(-c3cc(F)ccc3C(F)F)[nH]c12 [Compound 837]

EC1.5 [1]: B (EC1.5 1-25 uM)
Fold Act. (percent maximum fold activation) [1]: B (Fold Activation <200%)
Compound: O=C(Nc1ccccn1)c1cncc2[nH]c(-c3ccc(F)cc3C(F)(F)F)nc12 [Compound 694]

EC1.5 [1]: A (EC1.5<1.0 uM)
Fold Act. (percent maximum fold activation) [1]: A (Fold activation >200%)
Compound: O=C(Nc1ccc(CN2CCCC2)cc1)c1cccc2[nH]c(-c3ccc(F)cc3C(F)(F)F)nc12 [Compound 813]
